Test results published in patent publication US4889860A (Nova Pharmaceutical Corporation, priority 1987, dated 1989).

Experiments:
[1] = water intake in 24 hr food-deprived rats; type: in vivo, rat; details: for Water Intake: Table 3, 24 hr; for Cumulative Water Intake: Table 5
Procedure: (§1) Rats were given water and powdered food ad lib for 8 days until food intake had stabilized, and body weight and food and water intakes were recorded at the same time every day. Animals were assigned to treatment groups matched on the basis of their 24 hr food consumption on the last baseline day, and rats were food deprived for 24 hr immediately before injection of the test compound. […] The compound of Example XII was injected S.C. at doses of 1.15, 2.31, 11.55 and 23.09 μmol/kg, in a volume of 4 ml/kg of 0.3% acetic acid. Controls were injected with the vehicle solutions in the appropriate volumes. Food and water intakes were measured at 1, 3 and 24 hr after treatment. Data for each measure and time point were analyzed by one-way analysis of variance (ANOVA), and post-hoc comparisons were performed using Dunnett's test in order to compare the control mean to each of the treatment means.
(§2) Rats were given water and powdered food for 8 days, and following this,
(§3) Testing was performed as described above, and baseline measurements were recorded for 7 days. […] The compound of Example XII was injected at doses of 11.55, 23.09, 46.19 and 92.38 μmol/kg by suspension in a solution of 1:1 DMSO:water in a volume of 3 ml/kg. Food and water intakes were recorded at 1, 2, 4 and 6 h following treatment.
See Table 3 for experimental details, except that baseline measurements

[2] = food intake in 24 hr food-deprived rats; type: in vivo, rat; details: for Food Intake in Grams: Table 3, 24 hr; for Cumulative Food Intake in Grams: Table 4
Procedure: as §1, §2, §3
See Table 3 for experimental details, except that baseline measures were […]

In the case of `Oc1ccc2c3c1O[C@H]1C(=NOc4ccccc4)CC[C@@]4(O)[C@@H](C2)N(CC2CC2)CC[C@]314` [Example XII, 6-Phenyloximino-17-cyclopropylmethyl-4,5 α-epoxy-3, 14-dihydroxymorphinan], the “Water Intake” value ([1]; S.C. 1.15 μmol/kg) is reported as 68.3 ± 8.8 mL, the “Water Intake” value ([1]; S.C. 2.31 μmol/kg) is reported as 65.0 ± 6.2 mL and the “Water Intake” value ([1]; S.C. 11.55 μmol/kg) is reported as 60.3 ± 2.1 mL. For the same compound, the “Water Intake” value ([1]; S.C. 23.09 μmol/kg) was 62.8 ± 3.6 mL, the “Cumulative Water Intake” value ([1]; S.C. 11.55 μmol/kg, 0-1 Hr) was 4.8 ± 1.1 mL and the “Cumulative Water Intake” value ([1]; S.C. 11.55 μmol/kg, 0-2 Hr) was 8.0 ± 1.2 mL. For the same compound, the “Cumulative Water Intake” value ([1]; S.C. 11.55 μmol/kg, 0-4 Hr) was 15.6 ± 2.5 mL, the “Cumulative Water Intake” value ([1]; S.C. 11.55 μmol/kg, 0-6 Hr) was 22.0 ± 1.6 mL and the “Cumulative Water Intake” value ([1]; S.C. 23.09 μmol/kg, 0-1 Hr) was 4.0 ± 1.0 mL. For the same compound, the “Cumulative Water Intake” value ([1]; S.C. 23.09 μmol/kg, 0-2 Hr) was 7.2 ± 0.6 mL, the “Cumulative Water Intake” value ([1]; S.C. 23.09 μmol/kg, 0-4 Hr) was 13.2 ± 2.3 mL and the “Cumulative Water Intake” value ([1]; S.C. 23.09 μmol/kg, 0-6 Hr) was 19.6 ± 2.2 mL. For the same compound, the “Cumulative Water Intake” value ([1]; S.C. 46.19 μmol/kg, 0-1 Hr) was 5.2 ± 0.9 mL, the “Cumulative Water Intake” value ([1]; S.C. 46.19 μmol/kg, 0-2 Hr) was 8.0 ± 1.6 mL and the “Cumulative Water Intake” value ([1]; S.C. 46.19 μmol/kg, 0-4 Hr) was 15.2 ± 1.5 mL. For the same compound, the “Cumulative Water Intake” value ([1]; S.C. 46.19 μmol/kg, 0-6 Hr) was 20.8 ± 2.9 mL, the “Cumulative Water Intake” value ([1]; S.C. 92.38 μmol/kg, 0-1 Hr) was 4.0 ± 0.7 mL and the “Cumulative Water Intake” value ([1]; S.C. 92.38 μmol/kg, 0-2 Hr) was 7.6 ± 0.8 mL. The “Cumulative Water Intake” value ([1]; S.C. 92.38 μmol/kg, 0-4 Hr) was 15.2 ± 1.8 mL, the “Cumulative Water Intake” value ([1]; S.C. 92.38 μmol/kg, 0-6 Hr) was 21.2 ± 2.1 mL and the “Food Intake in Grams” value ([2]; S.C. 1.15 μmol/kg) was 33.3 ± 1.6 Grams. For the same compound, the “Food Intake in Grams” value ([2]; S.C. 2.31 μmol/kg) was 31.0 ± 2.0 Grams, the “Food Intake in Grams” value ([2]; S.C. 11.55 μmol/kg) was 41.7 ± 7.4 Grams and the “Food Intake in Grams” value ([2]; S.C. 23.09 μmol/kg) was 37.6 ± 5.6 Grams. The “Cumulative Food Intake in Grams” value ([2]; S.C. 11.55 μmol/kg, 0-1 Hr) was 2.0 ± 1.0 Grams, the “Cumulative Food Intake in Grams” value ([2]; S.C. 11.55 μmol/kg, 0-2 Hr) was 2.0 ± 1.0 Grams and the “Cumulative Food Intake in Grams” value ([2]; S.C. 11.55 μmol/kg, 0-4 Hr) was 2.8 ± 0.9 Grams. The “Cumulative Food Intake in Grams” value ([2]; S.C. 11.55 μmol/kg, 0-6 Hr) was 3.6 ± 1.3 Grams, the “Cumulative Food Intake in Grams” value ([2]; S.C. 23.09 μmol/kg, 0-1 Hr) was 2.0 ± 0.7 Grams and the “Cumulative Food Intake in Grams” value ([2]; S.C. 23.09 μmol/kg, 0-2 Hr) was 2.4 ± 0.8 Grams. For the same compound, the “Cumulative Food Intake in Grams” value ([2]; S.C. 23.09 μmol/kg, 0-4 Hr) was 3.6 ± 1.5 Grams, the “Cumulative Food Intake in Grams” value ([2]; S.C. 23.09 μmol/kg, 0-6 Hr) was 3.6 ± 1.5 Grams and the “Cumulative Food Intake in Grams” value ([2]; S.C. 46.19 μmol/kg, 0-1 Hr) was 2.8 ± 0.6 Grams. The “Cumulative Food Intake in Grams” value ([2]; S.C. 46.19 μmol/kg, 0-2 Hr) was 2.8 ± 0.6 Grams, the “Cumulative Food Intake in Grams” value ([2]; S.C. 46.19 μmol/kg, 0-4 Hr) was 3.2 ± 0.6 Grams and the “Cumulative Food Intake in Grams” value ([2]; S.C. 46.19 μmol/kg, 0-6 Hr) was 3.6 ± 0.8 Grams. For the same compound, the “Cumulative Food Intake in Grams” value ([2]; S.C. 92.38 μmol/kg, 0-1 Hr) was 3.2 ± 0.6 Grams, the “Cumulative Food Intake in Grams” value ([2]; S.C. 92.38 μmol/kg, 0-2 Hr) was 3.2 ± 0.6 Grams and the “Cumulative Food Intake in Grams” value ([2]; S.C. 92.38 μmol/kg, 0-4 Hr) was 4.0 ± 0.7 Grams. The “Cumulative Food Intake in Grams” value ([2]; S.C. 92.38 μmol/kg, 0-6 Hr) was 4.8 ± 1.1 Grams.
